# Test system: Rhine virus
# Assay: activity against Rhine virus
# Conditions: not given
row,SMILES,activity against Rhine virus
1,CCCCNC(=O)CON=C(C)c1ccc(Cl)cc1 [N-n.butyl-[(α-methyl-4-chlorobenzylideneamino)oxy] acetamide],interesting activity
2,"CC(=NOCCCC(=O)O)c1ccc(Cl)cc1 [C1 H H CH3 (CH2)3 OH, 4-[(α-methyl-4-chlorobenzylideneamino)oxy] butyric acid]",interesting activity
3,"CC(=NOCC(N)=O)c1ccc(Cl)cc1 [C1 H H CH3 CH2 NH2, [(α-methyl-4-chlorobenzylidene amino)oxy]acetamide]",interesting activity
4,"CC(=NOCC(N)=O)c1ccc(Cl)c(Cl)c1 [C1 C1 H CH3 CH2 NH2, [(α-methyl-3,4-dichlorobenzylidene amino)oxy] acetamide]",interesting activity
5,"CC(=NOCC(=O)NN)c1ccc(Cl)cc1 [C1 H H CH3 CH2 NHNH2, [(α-methyl-4-chlorobenzylidene amino)oxy] acet hydrazide]",interesting activity
6,"CC(=NOCC(=O)O)c1ccc(Cl)cc1Cl [C1 H C1 CH3 CH2 OH, [(α-methyl-2,4-dichlorobenzylidene amino)oxy] acetic acid]",interesting activity

# Test system: not listed separately
# Assay: acute toxicity (LD50 table, level of toxicity)
# Conditions: in vivo, po; route of administration: or(al)
# Description: This low level of toxicity appears from the following table: […]
SMILES,LD50 at 24 h,LD50 at 48 h
"CC(=NOCC(N)=O)c1ccc(Cl)cc1 [C1 H H CH3 CH2 NH2, [(α-methyl-4-chlorobenzylidene amino)oxy]acetamide]",> 1000 mg/kg,> 1000 mg/kg
"CC(=NOCC(=O)N(C)C)c1ccc(Cl)cc1 [C1 H H CH3 CH2 (CH3)2 N, [(α-methyl-4-chlorobenzylidene amino)oxy]-N,N-dimethyl acetamide]",> 1000 mg/kg,
"CC(=NOCC(N)=O)c1ccc(Cl)c(Cl)c1 [C1 C1 H CH3 CH2 NH2, [(α-methyl-3,4-dichlorobenzylidene amino)oxy] acetamide]",~1000 mg/kg,
"CC(=NOCC(=O)NN)c1ccc(Cl)cc1 [C1 H H CH3 CH2 NHNH2, [(α-methyl-4-chlorobenzylidene amino)oxy] acet hydrazide]",~1000 mg/kg,
CC(=NOCC(=O)OC(C)C)c1ccc(Cl)cc1 [C1 H H CH3 CH2 OCH(CH3)2],> 1000 mg/kg,
"CNC(=O)CON=C(C)c1ccc(Cl)cc1 [C1 H H CH3 CH2 NHCH3, [(α-methyl-4-chlorobenzylidene amino)oxy]-N-methyl acetamide]",> 1000 mg/kg,
"COC(=O)CON=C(C)c1ccc(Cl)cc1 [C1 H H CH3 CH2 OCH3, [(α-methyl-4-chlorobenzylidene amino)oxy] acetic acid methyl ester]",> 1000 mg/kg,> 1000 mg/kg
"CC(=NOCC(=O)O)c1ccc(Cl)cc1 [C1 H H CH3 CH2 OH, [(α-methyl-4-chlorobenzylidene amino)oxy] acetic acid]",> 1000 mg/kg,> 1000 mg/kg
CCCCCCCCOC(=O)CON=C(C)c1ccc(Cl)cc1 [C1 H H CH3 CH2 OnC8 H17],> 1000 mg/kg,
"CC(=NOCCC(N)=O)c1ccc(Cl)cc1 [C1 H H CH3 (CH2)2 NH2, 3-[(α-methyl-4-chlorobenzylideneamino)oxy] propionamide]",> 1000 mg/kg,
CC(=NOCC(=O)OCc1ccccc1)c1ccc(Cl)cc1 [C1 H H CH3 CH2 OCH2 C6 H5],> 1000 mg/kg,

# Same assay, conditions: in vivo; route of administration: par(enteral)
row,SMILES,LD50 at 24 h
1,"CC(=NOCCCC(=O)O)c1ccc(Cl)cc1 [C1 H H CH3 (CH2)3 OH, 4-[(α-methyl-4-chlorobenzylideneamino)oxy] butyric acid]",> 320 mg/kg
2,CC(=NOCC(=O)O)c1ccc(S(C)(=O)=O)cc1 [CH3 SO2 H H CH3 CH2 OH],> 320 mg/kg
3,CC(=NOCC(=O)O)c1ccc(Br)cc1 [Br H H CH3 CH2 OH],> 100 mg/kg
4,"O=C(O)CON=Cc1ccc(Cl)cc1 [C1 H H H CH2 OH, [(4-chlorobenzylidene amino)oxy] acetic acid]",> 320 mg/kg
5,CC(=NOCC(=O)O)c1cccc(Cl)c1 [H C1 H CH3 CH2 OH],> 320 mg/kg
6,"CC(=NOCC(=O)O)c1ccc(Cl)c(Cl)c1 [C1 C1 H CH3 CH2 OH, [(α-methyl-3,4-dichlorobenzylene amino)oxy] acetic acid]",> 320 mg/kg
7,CC(=NOCC(=O)O)c1ccc(C)cc1 [CH3 H H CH3 CH2 OH],> 320 mg/kg
8,"CC(=NOCCC(=O)O)c1ccc(Cl)cc1 [C1 H H CH3 (CH2)2 OH, 3-[(α-methyl-4-chlorobenzylideneamino)oxy] propionic acid]",> 100 mg/kg
9,"CC(=NOCC(=O)O)c1ccc(Cl)cc1Cl [C1 H C1 CH3 CH2 OH, [(α-methyl-2,4-dichlorobenzylidene amino)oxy] acetic acid]",> 320 mg/kg

# Test system: not listed separately
# Assay: anti-inflammatory and analgetic activities, general statement
# Format: in vivo
# Conditions: test not specified
row,SMILES,activities
1,"CC(=NOCC(N)=O)c1ccc(Cl)cc1 [C1 H H CH3 CH2 NH2, [(α-methyl-4-chlorobenzylidene amino)oxy]acetamide]",particularly strong activities
2,"COC(=O)CON=C(C)c1ccc(Cl)cc1 [C1 H H CH3 CH2 OCH3, [(α-methyl-4-chlorobenzylidene amino)oxy] acetic acid methyl ester]",particularly strong activities
3,"CC(=NOCC(=O)O)c1ccc(Cl)cc1 [C1 H H CH3 CH2 OH, [(α-methyl-4-chlorobenzylidene amino)oxy] acetic acid]",particularly strong activities

# Test system: not given
# Assay: not given
# Conditions: known compound, background; cited from earlier work
SMILES,potency,toxicity level
COc1ccc2c(c1)c(CC(=O)O)cn2-c1ccc(Cl)cc1 [(N-p.chlorophenyl-5-methoxy indolyl-3) acetic acid],highly potent,high toxicity level

# Same assay, conditions: known compound, background; due to high toxicity; cited from earlier work
row,SMILES,therapeutic level
1,COc1ccc2c(c1)c(CC(=O)O)cn2-c1ccc(Cl)cc1 [(N-p.chlorophenyl-5-methoxy indolyl-3) acetic acid],quite low

# — US4196216A, “Novel benzylidene amini-oxyalkyl carboxylic acids and carboxylic acid derivatives” (U.S. Philips Corporation, priority 1968, dated 1980)
